Assay results published in US20110052551A1, “CARDIAC MYOCYTE MORPHOGENIC COMPOSITIONS AND METHODS OF USE THEREFOR” (priority 2008, published 2011).
“Also recorded” adds a separate entry of the source.

Assays:
Format in all cases: cell-based, mice
[1] = system: JNK phosphorylation in BMMNCs; test: Western immunoblotting of Wnt11-induced JNK phosphorylation; details: 1 μM, 3 hours in Wnt11-CM
Method: Assessment of Wnt signaling. To investigate non-canonical signaling pathways, freshly isolated unfractionated BMMNCs were cultured in Wnt11-CM or in empty vector (control) medium in the presence or absence of 1 μM of the PKC inhibitor bisindolylmaleimide I (BIM, Sigma) for 3 hours followed by harvest and assessment of JNK phosphorylation by Western immunoblotting (see below and FIG. 9B). The expression of cardiac-specific gene expression in unfractionated BMMNCs was assessed by qRT-PCR following culture for 3 days in Wnt11-CM and empty vector (control) medium with and without PKC (BIM; 1 μM) and JNK (SP600125; 10 μM; Sigma) inhibitors (see FIG. 9B). Expression of Wnt3a and β-catenin were measured by qRT-PCR to investigate the effect of control, Wnt3a medium, and Wnt11-CM on canonical signaling.
(§1) Western immunoblotting and quantitative ELISA. […] Gel transfer efficiency was recorded carefully by making photocopies of membranes dyed with reversible Ponceau staining; gel retention was determined by Coomassie blue staining. […] Immunoreactive bands were visualized with horseradish peroxidase-conjugated anti-goat and anti-rabbit IgG (Santa Cruz Biotechnology) using an ECL detection kit (New England Nuclear, Billerica, Mass., United States of America), quantified by densitometry, and normalized GAPDH. […]

unfractionated BMMNCs [2] = test: qRT-PCR of Wnt11-induced cardiac gene expression with PKC and JNK inhibitors; details: 3 days in Wnt11-CM, BIM 1 μM, SP600125 10 μM
Method: Assessment of mRNA expression by quantitative real-time RT-PCR (qRT-PCR). All qRT-PCR reagents and primers were purchased from Qiagen Inc. (Valencia, Calif., United States of America). Prior to mRNA extraction, cell number was determined and calculated by Trypan blue exclusion. cDNA was generated from freshly isolated (designated as baseline) and cultured unfractionated BMMNCs at days 0, 3, 7, and 21 (see FIG. 9A) using QUANTISCRIPT REVERSE TRANSCRIPTASE™ (Qiagen Inc., Valencia, Calif., United States of America) contained in RT master mix of Cell to cDNA kits according to manufacturer's protocol. […]
To avoid amplification of contaminating DNA, all validated qRT-PCR primers were designed to cross […] sequences within the cDNA to be amplified. Quantitative qRT-PCR analysis was performed in an ABI Prism 7900H sequence detection system (Applied Biosystems, Foster City, Calif.) using QUANTITECT™ SYBR® Green Real Time PCR kits. Each 50 μl qRT-PCR reaction contained 2 μl (approximately 50 ng) of cDNA, 5 μl of 1× primer mix (containing approximately 500 nM sense and anti-sense primers) and 25 μl of 2× QUANTITECT™ SYBR® Green master mix. […]
The PCR product level is calculated from the threshold cycle (Ct). That is, the amplification cycle number at which exponential PCR-generated gene-specific fluorescence is first detected (above a fixed threshold level). […]

unfractionated BMMNCs [3] = test: cTnI ELISA in cultured BMMNCs; details: for effect on Wnt11-induced expression of cTnI: 21 days of culture in Wnt11-CM
Method: Assessment of cardiac differentiation. For quantitative assessment of cardiomyocytic differentiation, an average of 2400 cells/plate were counted. Multiple fields from all 4 quarters of the plate were systematically evaluated. The number of cells expressing cardiac-specific intracellular contractile proteins in each field was counted; the total number of cells was calculated based on nuclear staining with DAPI. In addition, cells were concomitantly stained with markers specific for various non-cardiac lineages (skeletal muscle [myogenin]; neural [nestin, GFAP]; myeloid [CD11b, Gr-1]; and others; Zuba-Surma et al., 2006). Cells were counted as positive when they were positive for cardiac-specific contractile proteins and negative for all of these markers. Thus, a rigorous method was employed to assess cardiac differentiation in vitro. The percentage of cells differentiating into cardiomyocytes was calculated as the number of cells positive for proteins divided by the total number of nuclei in the field. These experiments were performed in triplicate. As a confirmatory measure, the expression of cardiac-specific troponin I (cTnI) was determined by ELISA as described hereinbelow following culture in Wnt11-CM with and without the Wnt inhibitor Dickkopf-1 (Dkk-1; see FIG. 9C).
as §1, with “ELISA. Western analysis was performed as described in Guo et al., 1998; Brandon et al., 2000; Li et al., 2003; and Li et al., 2006.” for “ELISA.”, “GAPDH. In all samples, the content of target protein was expressed as a percentage of the controls (untreated), normalized to GAPDH.” for “GAPDH.”

CN(C)CCCn1cc(C2=C(c3c[nH]c4ccccc34)C(=O)NC2=O)c2ccccc21 [BIM, bisindolylmaleimide I]
Wnt11-induced JNK phosphorylation [1]: completely blocked
Wnt11-induced cardiac gene expression (unfractionated BMMNCs [2]): abolished; also recorded: no expression
Wnt11-induced cardiac gene expression (unfractionated BMMNCs [2]; listed as bisindolylmaleimide I): completely abolished

B1: Dkk-1: soluble inhibitor of canonical signaling that blocks Wnt-signaling at the cell surface (protein, UniProt O94907 32-266, looked up)
Dickkopf-related protein 1: TLNSVLNSNAIKNLPPPLGGAAGHPGSAVSAAPGILYPGGNKYQTIDNYQPYPCAEDEECGTDEYCASPTRGGDAGVQICLACRKRRKRCMRHAMCCPGNYCKNGICVSSDQNHFRGEIEETITESFGNDHSTLDGYSRRTTLSSKMYHTKGQEGSVCLRSSDCASGLCCARHFWSKICKPVLKEGQVCTKHRRKGSHGLEIFQRCYCGEGLSCRIQKDHHQASNSSRLHTCQRH
effect on Wnt11-induced expression of cTnI (unfractionated BMMNCs [3]): reduced
effect on Wnt11-induced expression of cTnI (unfractionated BMMNCs [3]; listed as Dickkopf-1): attenuated
effect on cTnI expression by itself (unfractionated BMMNCs [3]; 21 days of culture, without Wnt11-CM): little effect
